The text below walks through data of US20240423953A1, “METHODS AND COMPOSITIONS FOR TARGETING SV2 PROTEINS FOR IMMUNE REGULATION” (THE REGENTS OF THE UNIVERSITY OF CALIFORNIA, priority 2021, published 2024).

Assay [1] relates to ST2L. In words: ST2L protein stability in primary MEFs treated with CHX (immunoblot, flow cytometry). Format: cell-based, mouse. The method, then: (§1) Primary mouse embryonic fibroblast cells (MEFs) were prepared as previously described^35. Briefly, mouse embryos were collected around embryonic day 14. Visible organs such as the brain, liver, and spleen were removed, and the leftover tissue was quickly minced and incubated in 0.25% trypsin-EDTA for 2 hr at 37° C. Cells were then washed with media and seeded in DMEM with 10% FBS, 1% penicillin/streptomycin and 0.055 mM β-mercaptoethanol. Every three days cells were passaged. Starting at passage 2, cells were used for studies.
Dead cells were routinely excluded with Zombie UV Fixable Viability Kit (BioLegend) or Fixable Aqua Dead Cell Stain (Thermo Fisher Scientific). Lineage-positive cells were excluded by staining for B220 (RA3-6B2), […] (145-2C11), TCRβ (H57-597), TCRγδ (eBioGL3), Ter119 (Ter119), NK1.1 (PK136), CD11b (M1/70), and CD11c (N418). For surface staining CD45 (30-F11), KLRG1 (2F1), CD25 (PC61.5), CD127 (A7R34), Sca1 (D7), Thy1/CD90.2 (53-2.1), and ST2 (RMST2-2, eBioscience) were used. For intracellular staining, cells were fixed and permeabilized with the Transcription Buffer Set (BD Pharmingen) per manufacturer's instructions followed by staining with anti-GATA3 (TWAJ, eBioscience), anti-IL-5 (TRFK5, Biolegend) and anti-IL-13 (eBio13A, eBioscience). Stained cells were used for flow cytometry analysis using a LSRII or Attune NxT (Becton Dickinson, BD) flow cytometer. Data were analyzed using the FlowJo software. Different cell types were identified by the following gating strategies^36,37: lung ILC2s (CD45^+Lin KLRG1^+CD90^+ or CD45^+Lin GATA3^+CD90^+CD25^+), BM ILC2P (CD45^+Lin^− CD127^+CD25^+).
(§2) Protein extracts from cells or tissues were prepared using whole protein lysis buffer (WL buffer) containing 50 mM Tris (pH 8), 0.4M NaCl, 0.5% NP-40, 10% glycerol, 1 mM EDTA, 1 mM DTT, and 1 mM PMSF as described previously^39. To extract proteins from MEFs, cells were washed with PBS once and then lysed with WL buffer on ice for 30 min. Lung or brain tissues from mice that had been euthanized and perfused with cold PBS were directly homogenized in the presence of WL buffer or alternatively, tissues were briefly disrupted in PBS and the insoluble fractions were then lysed in WL buffer for protein extraction. Immunoblot analysis was performed using the following antibodies: anti-ST2L (R3880-2, Abiocode), anti-ST2 (M3880-1, Abiocode), anti-SV2A (M3004-1, Abiocode), anti-Tubulin (M0267-1b, Abiocode).
(In general: In western blotting, separated proteins are transferred to a membrane and probed.)

Assay [2] concerns lung ILC2s. Description: Flow cytometry analysis of lung ILC2 responses in LEV-treated naive mice. The class given is in vivo, mouse. As to conditions: LEV 17 mg/kg intranasal daily day 1, 2, 3. From the text: (§3) Sv2a^+/− mice on C57BL/6 129Sv mixed genetic background^21 were purchased from the Jackson laboratory (B6;129P2-Sv2a^tm1SudSv2b^tm1Sud/J) and were backcrossed to C57 background for at least 5 generations prior to use. Mice were housed under specific-pathogen-free conditions. Sex-matched littermates between 6 and 16 weeks of age were used for experiments if not otherwise indicated. C57BL/6 mice were purchased from the Jackson Laboratory or the UCLA animal core facility. C57BL/6 mice were randomly assigned to treatment groups after matching for sex and age. […] For the IL-33 or papain-induced lung inflammation models, mice were treated intranasally on days 1, 2, and 3. Bone marrows and lungs were harvested, processed, and analyzed on day 4. The inventors were not blinded to allocation during the studies. All studies were conducted in accordance with animal protocols approved by the Animal Research Committee of the University of California Los Angeles.
Mice were euthanized and perfused with cold PBS. Lung lobes were diced into small pieces and incubated with 0.2 mg/mL collagenase P. 0.8 mg/mL Dispase II, 0.1 mg/mL DNase I in RPMI1640 containing 5% FBS for 1 hr at 37° C. before being mashed through […] cell strainers. Bone marrow cells were collected by flushing out the marrow from femurs and tibias using a syringe with PBS. Red blood cells were removed using RBC lysis buffer (Sigma-Aldrich, Cat #: R7757) according to the manufacturer's recommendations followed by 1×PBS wash. After saturating the Fc-receptors with CD16/CD32-blocking antibody (BioLegend), single-cell suspensions were incubated on ice with conjugated antibodies in PBS (Ca^2+ and Mg^2+-free).
Dead cells were routinely excluded with Zombie UV Fixable Viability Kit (BioLegend) or Fixable Aqua Dead Cell Stain (Thermo Fisher Scientific). Lineage-positive cells were excluded by staining for B220 (RA3-6B2), […] (145-2C11), TCRβ (H57-597), TCRγδ (eBioGL3), Ter119 (Ter119), NK1.1 (PK136), CD11b (M1/70), and CD11c (N418). […] Data were analyzed using the FlowJo software. […]

Assay [3] addresses T1, SV2A protein (Mus musculus, UniProt Q9JIS5).
T1 construct: from tissue; host or cells: lung and brain of C57BL/6 mice
In words: Immunoblot analysis of SV2A protein in lungs and brain of intranasally treated mice. The class given is in vivo.
Text: as §3
(§4) Protein extracts from cells or tissues were prepared using whole protein lysis buffer (WL buffer) containing 50 mM Tris (pH 8), 0.4M NaCl, 0.5% NP-40, 10% glycerol, 1 mM EDTA, 1 mM DTT, and 1 mM PMSF as described previously^39. To extract proteins from MEFs, cells were washed with PBS once and then lysed with WL buffer on ice for 30 min. […]

Assay [4] deals with lung ILC2s. In words: Papain-induced mouse lung inflammation model, flow cytometry of lung ILC2s. The class given is in vivo. As to conditions: papain 50 μg + LEV 17 mg/kg intranasal daily day 1, 2, 3; day 4; vs papain alone.
Text: as §3
(§5) Mice were euthanized and perfused with cold PBS. […]
(§6) Dead cells were routinely excluded with Zombie UV Fixable Viability Kit (BioLegend) or Fixable Aqua Dead Cell Stain (Thermo Fisher Scientific). […] Data were analyzed using the FlowJo software. […]

For assay [5], the system named is ST2L. Description: Immunoblot analysis of ST2L in lungs of LEV-treated mice. The class given is in vivo, mouse. As to conditions: LEV intranasal for 4 hr or daily for three consecutive days (3D), vs PBS.
Text: as §3, §4

Assay [6] concerns the target T1, SV2A protein. In words: Cell-free protein stability assay (lung or brain protein extracts, immunoblot with anti-SV2A). Format: biochemical. On the procedure:
Proteins extracts were prepared by incubating WL buffer with brain or lung tissues that had been pre-washed with PBS. […] The reaction mixtures were subsequently incubated at 37° C. for 1 hr, and the reactions were terminated by adding 20 μl of 4×SDS sample buffer followed by denaturing at 95° C. for 5 min. The samples were then analyzed directly by immunoblot analysis.
These two models were tested using the in vitro cell-free protein stability assays. […] We prepared two groups of reaction mixtures by mixing 0.2 μg of brain protein extract from WT mice with an excessive amount of either brain protein extract or lung protein extract prepared from Sv2a^−/− pup.

Assay [7] deals with BM ILC2P. Description: Flow cytometry analysis of bone marrow ILC2P in LEV-treated mice. The following applies: LEV 17 mg/kg intranasal daily day 1, 2, 3; BM harvested day 4. The class given is in vivo, mouse.
Text: as §3, §5, §6

The subject of assay [8] is Sv2a mRNA. Description: Q-PCR analysis of lung Sv2a gene expression in intranasally treated mice. Format: in vivo, mouse. As to conditions: IL-33 100 ng intranasal, 4 hr.
Text: as §3, with “For the IL-33 or papain-induced lung inflammation models, mice were treated intranasally on days 1, 2, and 3. Bone marrows and lungs were harvested, processed, and analyzed on day 4.” left out
Quantitative real time polymerase chain reaction (Q-PCR) analyses were performed as described^38. Briefly, cDNA prepared using the iScript cDNA Synthesis kit (Bio-Rad) were analyzed by Q-PCR using the CFX-96 Real-Time Detection System (Bio-Rad). The Q-PCR primer sequences of genes were: Sv2a forward—[…] (SEQ ID NO:2), Sv2a reverse […] (SEQ ID NO:3), St2l forward […] (SEQ ID NO:4), St2l reverse […] (SEQ ID NO:5), sSt2 forward—[…] (SEQ ID NO:6), sSt2 reverse […] (SEQ ID NO:7). Il1rap forward—[…] (SEQ ID NO:8), Il1rap reverse—[…] (SEQ ID NO:9), Il5 forward—[…] (SEQ ID NO:10), Il5 reverse—[…] (SEQ ID NO:11), Il13 forward—[…] […]

In assay [9] the test system is Il13 and Il5. In words: Q-PCR analysis of Il13 and Il5 gene induction in primary MEFs treated with IL-33. Format: cell-based, mouse. As to conditions: WT MEFs. The method, then:
as §1
Quantitative real time polymerase chain reaction (Q-PCR) analyses were performed as described^38. Briefly, cDNA prepared using the iScript cDNA Synthesis kit (Bio-Rad) were analyzed by Q-PCR using the CFX-96 Real-Time Detection System (Bio-Rad). The Q-PCR primer sequences of genes were: Sv2a forward—[…] (SEQ ID NO:2), Sv2a reverse […] (SEQ ID NO:3), St2l forward […] (SEQ ID NO:4), St2l reverse […] (SEQ ID NO:5), sSt2 forward—[…] (SEQ ID NO:6), sSt2 reverse […] (SEQ ID NO:7). Il1rap forward—[…] (SEQ ID NO:8), Il1rap reverse—[…] (SEQ ID NO:9), Il5 forward—[…] (SEQ ID NO:10), Il5 reverse—[…] (SEQ ID NO:11), Il13 forward—[…] (SEQ ID NO:12), Il13 reverse—[…] (SEQ ID NO:13), Hprt forward—[…] (SEQ ID NO:14), Hprt reverse—[…] (SEQ ID NO:15), Gapdh forward—[…] (SEQ ID NO:16), Gapdh reverse—[…] (SEQ ID NO:17).

Assay [10] has as its system ST2L. In words: Immunoblot analysis of ST2L expression in primary MEFs treated with IL-33. The class given is cell-based, mouse. The method, then:
as §1, §2

“Also recorded” adds a separate entry of the source.

T1 sequence (Q9JIS5 whole entry): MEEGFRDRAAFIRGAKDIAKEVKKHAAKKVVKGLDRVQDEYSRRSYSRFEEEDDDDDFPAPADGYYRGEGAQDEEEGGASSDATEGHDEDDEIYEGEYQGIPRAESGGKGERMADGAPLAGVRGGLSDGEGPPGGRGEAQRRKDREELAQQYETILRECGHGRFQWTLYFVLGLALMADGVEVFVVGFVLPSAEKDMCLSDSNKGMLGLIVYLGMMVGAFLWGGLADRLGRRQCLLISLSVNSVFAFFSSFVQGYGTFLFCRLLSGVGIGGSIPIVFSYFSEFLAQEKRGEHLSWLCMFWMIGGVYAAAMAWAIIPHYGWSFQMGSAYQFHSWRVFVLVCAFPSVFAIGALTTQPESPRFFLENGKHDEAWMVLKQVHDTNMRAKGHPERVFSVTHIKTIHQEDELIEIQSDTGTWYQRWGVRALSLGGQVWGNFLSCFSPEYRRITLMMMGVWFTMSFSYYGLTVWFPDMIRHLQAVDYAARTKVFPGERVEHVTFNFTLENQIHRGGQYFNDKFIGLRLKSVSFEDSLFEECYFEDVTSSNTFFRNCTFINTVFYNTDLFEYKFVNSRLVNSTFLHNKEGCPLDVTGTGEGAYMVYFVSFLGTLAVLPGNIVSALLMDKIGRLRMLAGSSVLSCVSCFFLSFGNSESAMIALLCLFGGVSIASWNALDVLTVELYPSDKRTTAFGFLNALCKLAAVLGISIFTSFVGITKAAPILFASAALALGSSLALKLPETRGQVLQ

With `C[C@@H]1C[C@@H]([C@H](O)CC2CC(=O)NC(=O)C2)C(=O)[C@@H](C)C1` [CHX, cycloheximde], the “ST2L expression (immunoblot)” value in assay [1] (Sv2a KO MEFs, 6 hr after CHX treatment) is reported as “no longer detectable”; in assay [1] (WT MEFs, 6 hr after CHX treatment) it was “only modestly reduced”; in assay [1] (WT MEFs, CHX for 20 hr), “remained to be detectable”. For the same molecule, in assay [1] (Sv2a KO MEFs, CHX 20 hr), the “reduction of percentage of ST2+ cells (flow cytometry)” value was “more than 15 fold”. Also, the “percentage of ST2+ cells after CHX” value in assay [1] (Sv2a KO MEFs, CHX 20 hr (from 13.7% untreated)) worked out at 0.78%; in [1] (WT primary MEFs, CHX 20 hr (from 20.5% untreated)), 6.35%. In assay [1] (WT primary MEFs, CHX 20 hr), the “reduction of ST2+ cells (flow cytometry)” value was “about 3 fold”.
As to `CC[C@@H](C(N)=O)N1CCCC1=O` [LEV, (S)-(−)-α-ethyl-2-oxo-1-pyrrolidine acetamide], the “populations of lung ILC2 cells producing IL-13 and IL-5” value in assay [2] (day 4) is listed as “suppressed”. In assay [2] (lungs harvested day 4), the “reduction of the cell numbers of lung ILC2s” value was “about 50%” and the “reduction of the frequency of lung ILC2s” value is recorded as “about 50%”. The “SV2A protein in the brain (immunoblot)” value in assay [3] (LEV 17 mg/kg intranasal, C57/BL6 mice) is on record as “did not reduce”. In assay [4], the “frequency of lung ILC2s, papain-induced ILC2 responses” value is reported as “reducing”; the “production of IL-5 and IL-13 by lung ILC2s, papain-induced” value is recorded as “blocking”. Besides, the “ST2L protein in the lungs (immunoblot)” value in assay [5] is listed as “clear suppression; also recorded: reduced”. Further, in assay [6] (0.2 μg WT brain extract, 10 mM LEV), the “degradation of brain SV2A protein with excess lung protein extracts from Sv2a-/- pup” value was “completely degraded”. The “degradation of brain SV2A protein with excess brain protein extracts from Sv2a-/- pup” value in [6] (0.2 μg WT brain extract, LEV 0.1 mM, 0.5 mM, 10 mM) was “did not cause the degradation”. The “SV2A protein in brain extracts” value in assay [6] (brain extracts, LEV, similar conditions (37° C.)) is “failed to reduce”. Besides, in assay [7], the “development of BM ILC2P” value is “suppressed”.

B1: IL-33: alarmin cytokine that signals through its receptor ST2; used as stimulus (R&D) (protein, UniProt O95760 1-270, looked up)
Interleukin-33: MKPKMKYSTNKISTAKWKNTASKALCFKLGKSQQKAKEVCPMYFMKLRSGLMIKKEACYFRRETTKRPSLKTGRKHKRHLVLAACQQQSTVECFAFGISGVQKYTRALHDSSITGISPITEYLASLSTYNDQSITFALEDESYEIYVEDLKKDEKKDKVLLSYYESQHPSNESGDGVDGKMLMVTLSPTKDFWLHANNKEHSVELHKCEKPLPDQAFFVLHNMHSNCVSFECKTDPGVFIGVKDNHLALIKVDSSENLCTENILFKLSET
In the case of B1, the “levels of Sv2a mRNA in the lungs (Q-PCR)” value in assay [8] is reported as “did not suppress”. Moreover, the “SV2A protein in the lungs (immunoblot)” value in assay [3] (IL-33 100 ng intranasal, 4 hr) was “reduction; also recorded: suppressed”. In addition, the “IL33-triggered induction of Il13 and Il5 (Q-PCR)” value in [9] is recorded as “significantly increased”. The “level of ST2L (immunoblot)” value in [10] (Sv2a KO MEFs, IL-33 for 20 hr) is on record as “dramatic reduction”; in [10] (WT MEFs, IL-33) it was “not reduced”.
